# Experimental data as given in patent US20050192547A1, “Combinations of antiseptic and antibiotic agents containing medical devices” (priority 2002, published 2005).
# Where two headings read alike, the source gives them in different places.
# Key:
# [1] = system: S. epidermidis; assay: Minimum inhibitory concentration in Trypticase Soy Broth, synergy (fractional inhibitory concentration); assay type: cell-based, Staphylococcus epidermidis
# [2] = system: S. epidermidis; assay: microbe, parasite or virus in culture; assay type: cell-based, Staphylococcus epidermidis; conditions: for MIC: Staphylococcus epidermidis
# [3] = tetrahydrofuran/methanol solvent systems
# [4] = Staphylococcus epidermidis, inoculum of 10^4 cfu/ml, read-out: MIC
# [5] = after 10-20 passages, inoculum 10^4 cfu/ml
# [6] = after 10 transfers, inoculum 10^6 cfu/ml
Compound,MIC ([2]; read-out: MIC AFTER PASSAGE) [µg/mL],"INCREASE IN MIC [2, 5]",MIC ([2]; read-out: MIC BEFORE PASSAGE) [µg/mL],other results
"CN(C)c1ccc(O)c2c1C[C@H]1C[C@H]3[C@H](N(C)C)C(O)=C(C(N)=O)C(=O)[C@@]3(O)C(O)=C1C2=O [Minocycline (M), minocycline]",0.156,2 fold,–,"MIC [1, 4]: 0.078 µg/mL; INCREASE IN MIC [2, 6]: 4 fold"
"CCn1cc(C(=O)O)c(=O)c2cc(F)c(N3CCNCC3)cc21 [Norfloxacin (Nf), norfloxacin]",2,40 fold,–,"MIC [1, 4]: 0.05 µg/mL; upper limit incorporated owing to low solubility [3]: about 0.5 percent (w/v)"
"CO[C@H]1/C=C/O[C@@]2(C)Oc3c(C)c(O)c4c(O)c(c(/C=N/N5CCN(C)CC5)c(O)c4c3C2=O)NC(=O)/C(C)=C\C=C\[C@H](C)[C@H](O)[C@@H](C)[C@@H](O)[C@@H](C)[C@H](OC(C)=O)[C@@H]1C [Rifampin (R), rifampin]",500,"25,000 fold",0.0195,–
"NC[C@H]1O[C@H](O[C@H]2[C@H](O)[C@@H](O[C@H]3O[C@H](CO)[C@@H](O)[C@H](N)[C@H]3O)[C@H](N)C[C@@H]2N)[C@H](N)C[C@@H]1O [Tobramycin (Tb), tobramycin]",0.5,20 fold,0.025,–
polyhexamethylenebiguanide [PHMB],–,–,–,INCREASE IN MIC [2]: 1.0 fold; MIC AFTER PASSAGE [2]: 0.31 µg/mL; MIC BEFORE PASSAGE [2]: 0.31 µg/mL
"CC(=O)O.CC(=O)O.NC(=N\CCCCCC/N=C(N)/N=C(\N)Nc1ccc(Cl)cc1)/N=C(\N)Nc1ccc(Cl)cc1 [Chlorhexidine (CHX), chlorhexidine diacetate]",–,–,–,MIC ([1]; inoculum of 10^4 cfu/ml): 0.5 µg/mL; INCREASE IN MIC [2]: 2 fold; MIC AFTER PASSAGE [2]: 1.0 µg/mL; MIC BEFORE PASSAGE [2]: 0.5 µg/mL
"Oc1cc(Cl)ccc1Oc1ccc(Cl)cc1Cl [Triclosan (T), triclosan]",2.5,7 fold,0.35,"MIC ([1]; Staphylococcus epidermidis): 0.35 µg/mL; INCREASE IN MIC [2, 6]: 7 fold"
